Data set [1] concerns the target human Cereblon WT GST-tagged protein (Homo sapiens (Human), UniProt Q96SW2). The experiment in a line: CRBN-binding affinity, HTRF (CEREBLON BINDING kit). Summed up:
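HTRF competition readout: compounds compete with a thalidomide-Re conjugate for GST-tagged wild-type human CRBN detected via Eu-labelled anti-GST antibody. Inhibition rate derived relative to protein-free blank wells.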
Background: In TR-FRET formats the signal depends on donor and acceptor labels being close together.

Data set [2] concerns the target IKZF1 protein (Homo sapiens (Human), UniProt Q13422+Q96SW2). The experiment in a line: Western-blot assay of substrate protein degradation in hPBMC, IKZF1. In kind it is cell-based. To be noted: for residual substrate protein level, IKZF1: hPBMC cells, compound 500 nM, 24 hours, Western blot. Background: In western blotting, separated proteins are transferred to a membrane and probed.

For data set [3], the target named is IKZF3 protein (Homo sapiens (Human), UniProt Q96SW2+Q9UKT9). Nature of the data set: Western-blot assay of substrate protein degradation in hPBMC, IKZF3. In kind it is cell-based. To be noted: for residual substrate protein level, IKZF3: hPBMC cells, compound 500 nM, 24 hours, Western blot.
Chain of IKZF3 protein (Q9UKT9 whole entry): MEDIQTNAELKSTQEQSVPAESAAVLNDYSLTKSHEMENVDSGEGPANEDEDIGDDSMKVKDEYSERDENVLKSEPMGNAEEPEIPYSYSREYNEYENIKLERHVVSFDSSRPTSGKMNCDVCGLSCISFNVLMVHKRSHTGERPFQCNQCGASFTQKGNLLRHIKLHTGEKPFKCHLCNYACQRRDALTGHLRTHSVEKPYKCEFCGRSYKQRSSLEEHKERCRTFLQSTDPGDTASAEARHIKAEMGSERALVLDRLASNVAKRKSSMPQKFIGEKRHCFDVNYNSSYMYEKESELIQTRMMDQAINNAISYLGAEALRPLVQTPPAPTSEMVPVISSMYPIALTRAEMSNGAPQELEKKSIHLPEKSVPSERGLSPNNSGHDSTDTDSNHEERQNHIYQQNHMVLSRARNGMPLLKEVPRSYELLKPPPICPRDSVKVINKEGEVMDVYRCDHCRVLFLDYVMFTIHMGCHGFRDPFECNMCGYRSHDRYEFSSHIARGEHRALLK
Chain of IKZF3 protein (Q96SW2 whole entry): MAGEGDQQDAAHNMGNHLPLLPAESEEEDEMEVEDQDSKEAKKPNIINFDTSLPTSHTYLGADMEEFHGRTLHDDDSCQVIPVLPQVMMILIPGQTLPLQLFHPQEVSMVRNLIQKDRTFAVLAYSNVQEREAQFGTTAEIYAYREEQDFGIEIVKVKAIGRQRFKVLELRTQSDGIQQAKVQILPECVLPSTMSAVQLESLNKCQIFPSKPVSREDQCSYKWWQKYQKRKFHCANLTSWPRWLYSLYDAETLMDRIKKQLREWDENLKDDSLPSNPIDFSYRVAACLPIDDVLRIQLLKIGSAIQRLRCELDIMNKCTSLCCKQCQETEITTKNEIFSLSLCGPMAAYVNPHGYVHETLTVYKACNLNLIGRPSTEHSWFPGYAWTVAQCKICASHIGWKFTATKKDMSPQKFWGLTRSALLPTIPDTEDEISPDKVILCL
Chain of IKZF3 protein (Q16531 whole entry partner): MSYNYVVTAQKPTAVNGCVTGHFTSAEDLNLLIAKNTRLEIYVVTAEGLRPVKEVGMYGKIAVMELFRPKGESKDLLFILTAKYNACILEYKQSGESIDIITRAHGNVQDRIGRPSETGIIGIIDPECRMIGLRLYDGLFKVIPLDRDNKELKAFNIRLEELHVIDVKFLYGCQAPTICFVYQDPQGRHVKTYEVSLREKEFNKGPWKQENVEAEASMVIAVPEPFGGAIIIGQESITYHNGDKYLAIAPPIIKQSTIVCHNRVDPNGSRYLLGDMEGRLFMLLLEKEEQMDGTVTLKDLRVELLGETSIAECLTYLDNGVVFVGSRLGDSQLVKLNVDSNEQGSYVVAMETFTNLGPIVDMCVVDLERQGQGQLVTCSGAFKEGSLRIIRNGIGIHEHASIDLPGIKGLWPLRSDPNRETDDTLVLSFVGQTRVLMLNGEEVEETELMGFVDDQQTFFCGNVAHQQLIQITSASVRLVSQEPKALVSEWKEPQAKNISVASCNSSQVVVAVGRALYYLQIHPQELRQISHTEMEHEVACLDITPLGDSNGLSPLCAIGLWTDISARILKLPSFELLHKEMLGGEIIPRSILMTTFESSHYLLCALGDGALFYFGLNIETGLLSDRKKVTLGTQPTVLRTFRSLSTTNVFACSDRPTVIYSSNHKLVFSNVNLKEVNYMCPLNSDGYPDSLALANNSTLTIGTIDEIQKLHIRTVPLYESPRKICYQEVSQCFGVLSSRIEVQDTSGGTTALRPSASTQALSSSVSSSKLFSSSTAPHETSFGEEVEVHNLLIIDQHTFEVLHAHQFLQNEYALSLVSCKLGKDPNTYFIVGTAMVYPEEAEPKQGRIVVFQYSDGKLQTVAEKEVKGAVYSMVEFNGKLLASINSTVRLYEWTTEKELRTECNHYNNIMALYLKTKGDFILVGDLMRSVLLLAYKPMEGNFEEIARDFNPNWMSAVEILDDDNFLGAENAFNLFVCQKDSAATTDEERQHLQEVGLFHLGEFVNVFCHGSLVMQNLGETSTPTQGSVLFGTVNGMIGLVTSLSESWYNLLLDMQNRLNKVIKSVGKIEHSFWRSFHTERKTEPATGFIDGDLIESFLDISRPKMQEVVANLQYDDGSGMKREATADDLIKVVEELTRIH
The target of data set [4] is GSPT1 protein (Homo sapiens (Human), UniProt P15170+Q96SW2). The experiment in a line: Western-blot assay of substrate protein degradation in hPBMC, GSPT1. In kind it is cell-based. To be noted: for residual substrate protein level, GSPT1: hPBMC cells, compound 500 nM, 24 hours, Western blot.
Chain of GSPT1 protein (P15170 whole entry): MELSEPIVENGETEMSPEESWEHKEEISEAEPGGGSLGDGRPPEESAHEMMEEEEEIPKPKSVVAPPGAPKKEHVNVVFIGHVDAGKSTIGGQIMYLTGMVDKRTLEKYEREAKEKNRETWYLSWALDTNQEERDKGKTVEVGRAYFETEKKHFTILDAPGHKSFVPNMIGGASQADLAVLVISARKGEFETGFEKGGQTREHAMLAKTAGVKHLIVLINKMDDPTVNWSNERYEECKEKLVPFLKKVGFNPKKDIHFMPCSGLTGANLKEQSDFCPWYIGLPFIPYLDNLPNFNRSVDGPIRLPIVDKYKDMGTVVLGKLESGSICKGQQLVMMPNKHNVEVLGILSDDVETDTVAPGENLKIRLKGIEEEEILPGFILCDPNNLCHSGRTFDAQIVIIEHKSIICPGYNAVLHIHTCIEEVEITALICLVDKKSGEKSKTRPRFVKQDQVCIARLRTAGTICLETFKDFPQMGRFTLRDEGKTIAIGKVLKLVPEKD
Chain of GSPT1 protein (Q96SW2 whole entry): as the sequence (Q96SW2 whole entry) above
Chain of GSPT1 protein (Q16531 whole entry partner): as the sequence (Q16531 whole entry partner) above
Data set [5] in a line: Pharmacokinetic study, oral administration, mouse plasma. It is filed as in vivo, mice. Particulars: p.o. 30 mg/kg. As to the method: The experimental animals used can be those commonly used in pharmacokinetic experiments, e.g., adult and healthy rodents (e.g., mice, rats (such as Sprague-Dawley (SD) rats), guinea pigs) or non-rodents (rabbits, dogs, and monkeys). In the present disclosure, mice were used as the experimental animals.
The experimental animals were divided into two groups: a control group (for collecting blank plasma) and an orally administered group (dosed at 10 mg/kg or 30 mg/kg). Blood samples were collected at predetermined sampling time points after administration, such as 0.25 h, 0.5 h, 1 h, 2 h, 4 h, 8 h, and 24 h post-dosing. Blank plasma was collected from the control group.
Plasma samples were preprocessed before analysis: 10 μL of 50% acetonitrile and 200 μL of internal standard solution (containing 50 ng/mL dexamethasone in acetonitrile) were added to 10 μL of plasma samples. For the blank control group, the same volume of acetonitrile was added instead of the internal standard. The processed samples were vortexed, centrifuged, and the supernatant was taken for LC-MS/MS injection analysis.
After preparing standard curves and quality control (QC) samples, the concentrations of the compounds in the plasma samples were determined by LC-MS/MS analysis. Based on the plasma concentration data obtained from LC-MS/MS analysis, the pharmacokinetic parameters of the test compounds were calculated using the non-compartmental model in the pharmacokinetic calculation software WinNonlin v8.1.

In data set [6] the test system is TMD8 cells. The experiment in a line: Tumor cell proliferation IC50 (CCK-8), TMD8. Particulars: Homo sapiens, TMD8, 72 h, read-out: IC50 for inhibiting the proliferation of tumor cells, TMD8.
Method: (§1) The tumor cells used herein were cultured in a cell culture medium listed in table A at 37° C. in an incubator with 5% CO2.
(§2) After the cells were treated with the compounds of the present disclosure for a period of time, the cell viability detection reagent was added to the culture medium for cell viability assessment according to the instructions provided with the CCK-8 kit. […] The growth inhibition of the compounds of the present disclosure on cells was plotted by Prism Graphpad software, and the IC50 values of the compounds of the present disclosure were calculated therefrom.
Data set [7] concerns Mino cells. The experiment in a line: Tumor cell proliferation IC50 (CCK-8), Mino.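 Also: cell viability assessed with CCK-8 reagent after compound exposure, IC50 derived from plotted growth inhibition curves.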 Particulars: Homo sapiens, 72 h, read-out: IC50 for inhibiting the proliferation of tumor cells, Mino.
Method: as §1, §2
Data set [8] concerns MM.1S cells. Nature of the data set: Tumor cell proliferation IC50 (CCK-8), MM.1S.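 Also: viability of cultured cells read by CCK-8 reagent after compound exposure, growth inhibition curves fitted to derive IC50.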 Particulars: Homo sapiens, MM1.S, 72 h, read-out: IC50 for inhibiting the proliferation of tumor cells, MM.1S.
Method: as §1, §2
In data set [9] the test system is MM.1R cells. Nature of the data set: Tumor cell proliferation IC50 (CCK-8), MM.1R. To be noted: Homo sapiens, 72 h, read-out: IC50 for inhibiting the proliferation of tumor cells, MM.1R.
Method: as §1, §2
For data set [10], the system named is Ramos cells. The experiment in a line: Tumor cell proliferation IC50 (CCK-8), Ramos. Particulars: Homo sapiens, 72 h, read-out: IC50 for inhibiting the proliferation of tumor cells, Ramos.
Method: as §1, §2
In data set [11] the test system is SW620 cells. Nature of the data set: Tumor cell proliferation IC50 (CCK-8), SW620. Particulars: Homo sapiens, SW-620, 96 h, read-out: IC50 for inhibiting the proliferation of tumor cells, SW620.
Method: as §1, §2
The test system of data set [12] is Kasumi-1 cells. Nature of the data set: Tumor cell proliferation IC50 (CCK-8), Kasumi-1. To be noted: Homo sapiens, Kasumi 1, 72 h, read-out: IC50 for inhibiting the proliferation of tumor cells, Kasumi-1.
Method: as §1, §2
For data set [13], the system named is SU-DHL-4 cells. Nature of the data set: Tumor cell proliferation IC50 (CCK-8), SU-DHL-4. Particulars: Homo sapiens, SU-DHL-4, 72 h, read-out: IC50 for inhibiting the proliferation of tumor cells, SU-DHL-4.
Method: (§3) Prior to experimentation, all cells used were correctly identified by STR profiling, and tested negative for mycoplasma through routine screenings.
as §2
In data set [14] the test system is SU-DHL-6 cells. Nature of the data set: Tumor cell proliferation IC50 (CCK-8), SU-DHL-6. To be noted: Homo sapiens, SU-DHL-6, 72 h, read-out: IC50 for inhibiting the proliferation of tumor cells, SU-DHL-6.
Method: as §3, §2
Data set [15] concerns CCRF-CEM cells. The experiment in a line: Tumor cell proliferation IC50 (CCK-8), CCRF-CEM.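 Also: cell viability measured with CCK-8 reagent after compound treatment, IC50 taken from plotted growth inhibition curves.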 To be noted: Homo sapiens, 96 h, read-out: IC50 for inhibiting the proliferation of tumor cells, CCRF-CEM.
Method: as §1, §2
Data set [16] concerns MDA-MB-231 cells. The experiment in a line: Tumor cell proliferation IC50 (CCK-8), MDA-MB-231. To be noted: Homo sapiens, MDA-MB-231, 96 h, read-out: IC50 for inhibiting the proliferation of tumor cells, MDA-MB-231.
Method: as §3, §2
The test system of data set [17] is Daudi cells. The experiment in a line: Tumor cell proliferation IC50 (CCK-8), Daudi.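 Also: cell viability read with CCK-8 reagent after compound exposure of Daudi cells, IC50 derived from plotted growth inhibition curves.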 To be noted: Homo sapiens, read-out: IC50 for inhibiting the proliferation of tumor cells, Daudi.
The test system of data set [18] is MV-4-11 cells. The experiment in a line: Tumor cell proliferation IC50 (CCK-8), MV-4-11. Particulars: Homo sapiens, MV4-11, 96 h, read-out: IC50 for inhibiting the proliferation of tumor cells, MV-4-11.
Method: as §1, §2

The term AUC(0-t) denotes exposure summed from dosing to a finite time, without extrapolation to infinity. A low value points to low exposure.

Chain of IKZF1 protein (Q13422 whole entry): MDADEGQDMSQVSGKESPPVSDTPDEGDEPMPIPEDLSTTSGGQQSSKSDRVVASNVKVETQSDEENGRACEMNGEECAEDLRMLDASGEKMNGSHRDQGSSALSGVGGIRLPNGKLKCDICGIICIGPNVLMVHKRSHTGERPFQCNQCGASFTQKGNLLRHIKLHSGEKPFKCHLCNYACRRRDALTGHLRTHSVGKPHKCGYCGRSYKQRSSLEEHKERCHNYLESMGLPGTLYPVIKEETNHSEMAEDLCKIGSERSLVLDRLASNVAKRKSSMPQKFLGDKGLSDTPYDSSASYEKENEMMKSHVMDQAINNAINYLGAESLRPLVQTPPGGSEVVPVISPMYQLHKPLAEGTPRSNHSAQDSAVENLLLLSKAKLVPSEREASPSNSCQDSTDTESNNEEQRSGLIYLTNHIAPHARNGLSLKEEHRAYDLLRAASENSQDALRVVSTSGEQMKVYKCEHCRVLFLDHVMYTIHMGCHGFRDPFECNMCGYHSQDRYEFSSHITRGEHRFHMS
Chain of IKZF1 protein (Q96SW2 whole entry): as the sequence (Q96SW2 whole entry) above
Chain of IKZF1 protein (Q16531 whole entry partner): as the sequence (Q16531 whole entry partner) above
Chain of human Cereblon WT GST-tagged protein (Q96SW2 whole entry): as the sequence (Q96SW2 whole entry) above

Regarding `O=C1CCC(N2Cc3cc(CN4CCN(Cc5ccccc5-c5ccc(Cl)cc5)CC4)ccc3C2=O)C(=O)N1` (stereo not shown) [GT-03355, 3-(5-((4-((4′-chloro-[1,1′-biphenyl]-2-yl)methyl)piperazin-1-yl)methyl)-1-oxoisoindolin-2-yl)piperidine-2,6-dione], the IC50 in data set [1] was 770 nM; in data set [6], < 5 nM; in data set [7] it was < 5 nM; in data set [8], < 5 nM; in [9], < 5 nM; in data set [10], 5 to 10 nM. Besides, the IC50 in data set [11] is 5 to 10 nM; in data set [12], < 5 nM; in data set [13] it was 100 to 500 nM; in [14], 10 to 50 nM; in [15] it was < 5 nM; in data set [16] it was < 5 nM. In [2], the “residual substrate protein level, IKZF1” value was “A (A represents a residual substrate protein level of <50%)”. Moreover, the “residual substrate protein level, IKZF3” value in data set [3] is “A (A represents a residual substrate protein level of <50%)”. In addition, the “residual substrate protein level, GSPT1” value in data set [4] is “A (A represents a residual substrate protein level of <50%)”. Besides, the AUC(0-t) in data set [5] was > 500 ng·h/mL.
In the case of `CC1(C)CCC(CN2CCN(Cc3cc4c(cc3F)C(=O)N(C3CCC(=O)NC3=O)C4)CC2)=C(c2ccc(Cl)cc2)C1` (stereo not shown) [GT-03578, 3-(5-((4-((4′-chloro-5,5-dimethyl-3,4,5,6-tetrahydro-[1,1′-biphenyl]-2-yl)methyl)piperazin-1-yl)methyl)-6-fluoro-1-oxoisoindolin-2-yl)piperidine-2,6-dione], the IC50 in data set [1] was 1830 nM; in data set [6], 10 to 50 nM; in data set [8], < 5 nM; in [9] it was 5 to 10 nM; in [10] it was 10 to 50 nM; in data set [12] it was < 5 nM. In addition, the IC50 in data set [13] is 100 to 500 nM; in data set [14], 1000 to 5000 nM; in data set [15], < 5 nM; in data set [16], < 5 nM. For the same compound, the “residual substrate protein level, IKZF1” value in [2] is given as “A (A represents a residual substrate protein level of <50%)”. Also, the “residual substrate protein level, IKZF3” value in data set [3] is “A (A represents a residual substrate protein level of <50%)”. In addition, in data set [4], the “residual substrate protein level, GSPT1” value is “A (A represents a residual substrate protein level of <50%)”. Moreover, the area under the curve AUC(0-t) in data set [5] is > 500 ng·h/mL.
Regarding `Nc1cccc2c1C(=O)N(C1CCC(=O)NC1=O)C2=O` (stereo not shown) [pomalidomide, reference compound], the “degradation of IKZF1 protein (Western blot, FIG. 1)” value in data set [2] (hPBMC, 24 h, 50 nM) was “cannot degrade”. In addition, the “degradation of IKZF3 protein (Western blot, FIG. 1)” value in data set [3] (hPBMC, 24 h, 50 nM) was “cannot degrade”. Also, the “degradation of GSPT1 protein (Western blot, FIG. 1)” value in [4] (hPBMC, 24 h, 50 nM) is reported as “cannot degrade”. In addition, the IC50 in data set [6] was 500 to 1000 nM; in [7], 1000 to 5000 nM; in data set [8], 100 to 500 nM; in [9], > 10000 nM; in data set [17], 5000 to 10000 nM; in data set [10] it was 1000 to 5000 nM. For the same compound, the IC50 in data set [11], in data set [18], in data set [12], in data set [13], in [14] and in data set [15] was > 10000 nM throughout. For the same compound, the IC50 in [16] was > 10000 nM.
